Laboratory results published in PubChem BioAssay AID1259407 (Chemical Carcinogenesis Research Information System (CCRIS), 2018).
Calls of active or inactive are those of the source. No rule for the calls is given here.

Test system: CCRIS mutagenicity, Ames/micronucleus/aberration tests
Test: CCRIS mutagenicity studies
[1] = Test System: AMES SALMONELLA TYPHIMURIUM, Strain/Indicator: TA98, Metabolic Activation: NONE, Method: STANDARD PLATE
[2] = Test System: AMES SALMONELLA TYPHIMURIUM, Strain/Indicator: TA100, Metabolic Activation: NONE, Method: PREINCUBATION

Q: What does the source list for `CC(=O)C1(c2ccccc2)CCNCC1`?
A: mutagenic call (Test System: AMES SALMONELLA TYPHIMURIUM, Strain/Indicator: TA98, Metabolic Activation: HAMSTER, LIVER, S-9, AROCLOR 1254, Method: STANDARD PLATE): inactive; negative; mutagenic call [1]: inactive; negative; mutagenic call (Test System: AMES SALMONELLA TYPHIMURIUM, Strain/Indicator: TA98, Metabolic Activation: RAT, LIVER, S-9, AROCLOR 1254, Method: STANDARD PLATE): inactive; negative; mutagenic call (Test System: AMES SALMONELLA TYPHIMURIUM, Strain/Indicator: TA100, Metabolic Activation: HAMSTER, LIVER, S-9, AROCLOR 1254, Method: STANDARD PLATE): inactive; negative; mutagenic call (Test System: AMES SALMONELLA TYPHIMURIUM, Strain/Indicator: TA100, Metabolic Activation: NONE, Method: STANDARD PLATE): inactive; negative; mutagenic call (Test System: AMES SALMONELLA TYPHIMURIUM, Strain/Indicator: TA100, Metabolic Activation: RAT, LIVER, S-9, AROCLOR 1254, Method: STANDARD PLATE): inactive; negative; mutagenic call (Test System: AMES SALMONELLA TYPHIMURIUM, Strain/Indicator: TA1535, Metabolic Activation: HAMSTER, LIVER, S-9, AROCLOR 1254, Method: STANDARD PLATE): inactive; negative; mutagenic call (Test System: AMES SALMONELLA TYPHIMURIUM, Strain/Indicator: TA1535, Metabolic Activation: NONE, Method: STANDARD PLATE): inactive; negative; mutagenic call (Test System: AMES SALMONELLA TYPHIMURIUM, Strain/Indicator: TA1535, Metabolic Activation: RAT, LIVER, S-9, AROCLOR 1254, Method: STANDARD PLATE): inactive; negative; mutagenic call (Test System: AMES SALMONELLA TYPHIMURIUM, Strain/Indicator: TA1537, Metabolic Activation: HAMSTER, LIVER, S-9, AROCLOR 1254, Method: STANDARD PLATE): inactive; negative; mutagenic call (Test System: AMES SALMONELLA TYPHIMURIUM, Strain/Indicator: TA1537, Metabolic Activation: NONE, Method: STANDARD PLATE): inactive; negative; mutagenic call (Test System: AMES SALMONELLA TYPHIMURIUM, Strain/Indicator: TA1537, Metabolic Activation: RAT, LIVER, S-9, AROCLOR 1254, Method: STANDARD PLATE): inactive; negative; mutagenic call (Test System: AMES SALMONELLA TYPHIMURIUM, Strain/Indicator: TA1538, Metabolic Activation: HAMSTER, LIVER, S-9, AROCLOR 1254, Method: STANDARD PLATE): inactive; negative; mutagenic call (Test System: AMES SALMONELLA TYPHIMURIUM, Strain/Indicator: TA1538, Metabolic Activation: NONE, Method: STANDARD PLATE): inactive; negative; mutagenic call (Test System: AMES SALMONELLA TYPHIMURIUM, Strain/Indicator: TA1538, Metabolic Activation: RAT, LIVER, S-9, AROCLOR 1254, Method: STANDARD PLATE): inactive; negative; mutagenic call (Test System: MOUSE LYMPHOMA, Strain/Indicator: L5178Y (TK+/TK-), Metabolic Activation: NONE, Method: SUSPENSION/PLATE): inactive; negative. reevaluation of results: negative; mutagenic call (Test System: MOUSE LYMPHOMA, Strain/Indicator: L5178Y (TK+/TK-), Metabolic Activation: RAT, LIVER, S-9, AROCLOR 1254, Method: SUSPENSION/PLATE): inactive; negative. reevaluation of results: inconclusive

Q: Which results are given for `Cn1c(N=[N+]=[N-])nc2c3ccccc3ccc21`?
A: mutagenic call (Test System: AMES SALMONELLA TYPHIMURIUM, Strain/Indicator: TA98(1,8-DNP6), Metabolic Activation: NONE, Method: STANDARD PLATE): active; positive; mutagenic call [1]: active; positive

Q: What does the source list for `CC(Cl)(Cl)[N+](=O)[O-]`?
A: mutagenic call (Test System: AMES SALMONELLA TYPHIMURIUM, Strain/Indicator: TA97, Metabolic Activation: HAMSTER, LIVER, S-9, AROCLOR 1254 (10%), Method: PREINCUBATION): active; positive; mutagenic call (Test System: AMES SALMONELLA TYPHIMURIUM, Strain/Indicator: TA97, Metabolic Activation: NONE, Method: PREINCUBATION): active; positive; mutagenic call (Test System: AMES SALMONELLA TYPHIMURIUM, Strain/Indicator: TA97, Metabolic Activation: RAT, LIVER, S-9, AROCLOR 1254 (10%), Method: PREINCUBATION): active; positive; mutagenic call (Test System: AMES SALMONELLA TYPHIMURIUM, Strain/Indicator: TA98, Metabolic Activation: HAMSTER, LIVER, S-9, AROCLOR 1254 (10%), Method: PREINCUBATION): inactive; negative; mutagenic call (Test System: AMES SALMONELLA TYPHIMURIUM, Strain/Indicator: TA98, Metabolic Activation: NONE, Method: PREINCUBATION): inactive; negative; mutagenic call (Test System: AMES SALMONELLA TYPHIMURIUM, Strain/Indicator: TA98, Metabolic Activation: RAT, LIVER, S-9, AROCLOR 1254 (10%), Method: PREINCUBATION): inactive; negative; mutagenic call (Test System: AMES SALMONELLA TYPHIMURIUM, Strain/Indicator: TA100, Metabolic Activation: HAMSTER, LIVER, S-9, AROCLOR 1254 (10%), Method: PREINCUBATION): active; positive; mutagenic call [2]: inactive; negative; mutagenic call (Test System: AMES SALMONELLA TYPHIMURIUM, Strain/Indicator: TA100, Metabolic Activation: RAT, LIVER, S-9, AROCLOR 1254 (10%), Method: PREINCUBATION): active; positive; mutagenic call (Test System: AMES SALMONELLA TYPHIMURIUM, Strain/Indicator: TA1535, Metabolic Activation: HAMSTER, LIVER, S-9, AROCLOR 1254 (10%), Method: PREINCUBATION): inactive; negative; mutagenic call (Test System: AMES SALMONELLA TYPHIMURIUM, Strain/Indicator: TA1535, Metabolic Activation: NONE, Method: PREINCUBATION): inactive; negative; mutagenic call (Test System: AMES SALMONELLA TYPHIMURIUM, Strain/Indicator: TA1535, Metabolic Activation: RAT, LIVER, S-9, AROCLOR 1254 (10%), Method: PREINCUBATION): inactive; negative

Q: With `Nc1ccccc1C(=O)C[C@H](N)C(=O)O` as the molecule, how does the mutagenic call [2] read?
A: Its mutagenic call is “inactive; negative”.
